Data: paper PMC9916969 (International Journal of Molecular Sciences, 2023)
Several values for one entry are separate records, joined by “and”; a condition that tells them apart may be missing. Equal values may be shown once. Read-outs that look alike come from different tables or passages of the source.

Tests used:
β-amyloid (1–42) (Aβ42) = β-amyloid (1–42) (Aβ42) (Homo sapiens, UniProt P05067); assay: Inhibition of Aβ42 self-aggregation (thioflavin T); assay type: biochemical; settings: for inhibition at 100 µM: read-out: Inhibition of Aβ42 Self-Aggregation
β-amyloid (1–42) (Aβ42), sequence (P05067 672-713 limits assumed): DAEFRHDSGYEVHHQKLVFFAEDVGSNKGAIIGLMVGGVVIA
Description: The inhibitory activity of tested hybrids against the self-aggregation of Aβ42 was determined in vitro using the thioflavin T (ThT) fluorimetric assay. According to [84], the ThT test is ideal for preliminary screening of inhibitors of Aβ42 self-aggregation, as it enables the quantitative testing of large numbers of compounds within a relatively short time.
The influence of the inhibitory effect of the test compounds toward Aβ42 self-aggregation was determined using the thioflavin T (ThT) fluorescence method with minor modifications. This assay is based on a specific interaction between the fluorescent dye thioflavin T that binds to the β-sheets of assembled amyloid fibrils leading to a significant increase in fluorescence signal. Therefore, the decrease in ThT fluorescence correlates with the ability of the studied compounds to inhibit the formation of amyloid aggregates.
One mg of lyophilized HFIP-pretreated Aβ42 from BACHEM (Bubendorf, Switzerland) was dissolved in DMSO to obtain a stable initial solution ([Aβ42] = 500 μM); then it was aliquoted and stored at −20 °C.
For the measurement of Aβ42 self-aggregation and amyloid fibril inhibition studies by the tested compounds, aliquots of 500 μM Aβ42 stock solution were diluted in 215 mM Na-phosphate buffer pH = 8.0 to a final concentration of 50 μM Aβ42. Then the samples were incubated for 24 h at 37 °C without stirring in the absence (base level of Aβ42 self-aggregation, control) or presence of the test compounds. Myricetin and propidium iodide were used as reference compounds (positive controls). All compounds were used in a concentration of 100 µM. To quantify Aβ42 fibril formation, after incubation, 5 μM ThT in 50 mM glycine-NaOH buffer pH 8.5 was added to the solutions to a final concentration of 4 μM ThT and the fluorescence was measured at 440 nm (excitation) and 485 nm (emission). Analyses were performed with a FLUOStar Optima microplate reader (LabTech, Ortenberg, Germany). The blanks consisted of 215 mM Na-phosphate buffer, pH = 8.0, 20% (v/v) DMSO or test compounds, respectively. Each assay was run in triplicate.

EeAChE PAS = target: T1, EeAChE PAS (Electrophorus electricus, UniProt O42275); assay type: binding; settings: compound 20 µM; EeAChE 7 µM; propidium iodide 8 µM
T1 construct: The enzyme was electric eel AChE (EeAChE type VI-S, lyophilized powder, Sigma-Aldrich); purchased Sigma-Aldrich type VI-S; host or cells: electric eel (tissue-derived)
T1 sequence (O42275 24-633): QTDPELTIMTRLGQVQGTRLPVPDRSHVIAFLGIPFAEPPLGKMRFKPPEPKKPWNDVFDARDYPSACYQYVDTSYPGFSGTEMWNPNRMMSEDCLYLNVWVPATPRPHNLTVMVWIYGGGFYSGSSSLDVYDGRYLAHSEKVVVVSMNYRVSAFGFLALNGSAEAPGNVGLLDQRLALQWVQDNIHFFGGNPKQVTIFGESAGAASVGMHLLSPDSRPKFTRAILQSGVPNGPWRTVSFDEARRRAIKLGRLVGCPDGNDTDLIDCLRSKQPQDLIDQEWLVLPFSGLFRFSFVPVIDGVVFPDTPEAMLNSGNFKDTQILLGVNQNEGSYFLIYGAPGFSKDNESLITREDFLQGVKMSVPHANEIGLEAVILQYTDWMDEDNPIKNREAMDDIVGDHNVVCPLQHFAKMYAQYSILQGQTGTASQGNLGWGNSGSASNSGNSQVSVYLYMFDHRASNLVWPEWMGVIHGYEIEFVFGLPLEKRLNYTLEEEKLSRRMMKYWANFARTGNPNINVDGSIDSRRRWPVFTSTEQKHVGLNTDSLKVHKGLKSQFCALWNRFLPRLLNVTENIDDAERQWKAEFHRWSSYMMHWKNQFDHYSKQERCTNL
Excerpt: This method is widely used as a screening approach to assess the potential ability of compounds to block AChE-induced β-amyloid aggregation. This is because when the compounds bind to the AChE PAS, they prevent the binding of β-amyloid, thereby inhibiting its aggregation.
The enzyme was electric eel AChE (EeAChE type VI-S, lyophilized powder, Sigma-Aldrich). We selected this source of AChE for consistency with our other reports and because of the purity, specific activity, and lower cost compared to human AChE.
Propidium iodide (final concentration 8 μM) was then added for a further 15 min incubation, and the fluorescence spectrum was taken (530 nm excitation and 600 nm emission) using a FLUOStar Optima microplate reader. The same concentration of propidium iodide in the Tris buffer was used as the blank. Triplicate determinations were recorded and the results were calculated via the following equation:% Displacement = 100 − (IFAChE+ Propidium + inhibitor/IFAChE + Propidium) × 100, where IFAChE + Propidium = fluorescence intensity of propidium iodide associated with AChE in the absence of the test compound (taken as 100%), and IFAChE + Propidium + inhibitor = fluorescence intensity of propidium iodide associated with AChE in the presence of the test compound.

[1] = ABTS radical cation scavenging assay; set-up: key to ABTS^•+ Scavenging Activity, TEAC: TEAC: ratio of compound slope to Trolox slope (Trolox equivalents); settings: 1 h incubation; for IC50: 50% reduction of ABTS radical cation; for ABTS^•+ Scavenging Activity, TEAC: Trolox equivalent, n.a. = not active
Description: In the ABTS assay, the dark-green ABTS cation-radical (ABTS^•+) is quenched by interaction with AOs. The consequent decrease in absorbance is followed spectrophotometrically per the previously described method.
Radical scavenging activity of the compounds was assessed using the ABTS radical cation (ABTS^•+) decolorization assay with some modifications. ABTS (2,2′-azinobis-(3-ethylbenzothiazoline-6-sulfonic acid) was purchased from Tokyo Chemical Industry Co., Ltd. (Tokyo, Japan); potassium persulfate (dipotassium peroxodisulfate), Trolox (6-hydroxy-2,5,7,8-tetramethylchroman-2-carboxylic acid), and HPLC-grade ethanol and DMSO were obtained from Sigma-Aldrich (Saint Louis, MO, USA). Aqueous solutions were prepared using deionized water. All tested compounds were dissolved in DMSO.
The solution of cation radical ABTS^•+ was produced by incubation of an aqueous solution of 7 mM ABTS and 2.45 mM potassium persulfate solution in equal quantities for 12–16 h at room temperature in the dark. Radical scavenging capacity of the compounds was analyzed by mixing 10 μL of compound with 240 μL of ABTS^•+ working solution in ethanol (100 μM final concentration). The reaction was monitored for an hour at 30 °C with an interval of 10 min. Data are given for 1 h of incubation of compounds with ABTS^•+. The reduction in absorbance was measured spectrophotometrically at 734 nm using an xMark microplate UV/VIS spectrophotometer (Bio-Rad, Hercules, CA, USA). Ethanol blanks were run in each assay. Values were obtained from five replicates of each sample and three independent experiments.
The standard AO Trolox was used as a reference compound. AO capacity as Trolox equivalent (TEAC) values was determined as the ratio between the slopes obtained from the linear correlation of the ABTS radical absorbance with the concentrations of tested compounds and Trolox. Ascorbic acid was used as a positive control. […]. The compounds were tested in the concentration range of 0.5–100 µM.

porcine liver CES = assay: In vitro CES inhibition (4-NPA substrate); assay type: biochemical; settings: compound 20 µM, n.a. = not active
Excerpt: (§1) Assessment of the esterase profile of new potential anti-AD molecules enables the estimation of both the primary pharmacological effects of the tested compounds—their inhibition of AChE and BChE—and their possible unwanted side effect—inhibition of CES, which hydrolyzes numerous ester-containing drugs. For the esterase profile evaluation, human erythrocyte AChE, equine serum BChE, and porcine liver CES were used. These sources of BChE and CES were employed because of their relatively low cost, high sequence identity to human enzymes, and the exploratory character of this work.
(§2) Chromophore absorbances were measured with a FLUOStar Optima microplate reader (BMG Labtech, Ortenberg, Germany). […] Initially, we used a single concentration of 20 µM for all compounds.

human erythrocyte AChE = target: T2, human erythrocyte AChE (Homo sapiens, UniProt P22303); assay: biochemical; settings: mean ± SEM, n = 3, read-out: Inhibitory activity against AChE, IC50
T2 construct: human erythrocyte AChE, equine serum BChE, and porcine liver CES were used; purchased Sigma-Aldrich; host or cells: human erythrocytes (tissue-derived)
T2 sequence (P22303 32-617 isoform P22303-2 limits assumed): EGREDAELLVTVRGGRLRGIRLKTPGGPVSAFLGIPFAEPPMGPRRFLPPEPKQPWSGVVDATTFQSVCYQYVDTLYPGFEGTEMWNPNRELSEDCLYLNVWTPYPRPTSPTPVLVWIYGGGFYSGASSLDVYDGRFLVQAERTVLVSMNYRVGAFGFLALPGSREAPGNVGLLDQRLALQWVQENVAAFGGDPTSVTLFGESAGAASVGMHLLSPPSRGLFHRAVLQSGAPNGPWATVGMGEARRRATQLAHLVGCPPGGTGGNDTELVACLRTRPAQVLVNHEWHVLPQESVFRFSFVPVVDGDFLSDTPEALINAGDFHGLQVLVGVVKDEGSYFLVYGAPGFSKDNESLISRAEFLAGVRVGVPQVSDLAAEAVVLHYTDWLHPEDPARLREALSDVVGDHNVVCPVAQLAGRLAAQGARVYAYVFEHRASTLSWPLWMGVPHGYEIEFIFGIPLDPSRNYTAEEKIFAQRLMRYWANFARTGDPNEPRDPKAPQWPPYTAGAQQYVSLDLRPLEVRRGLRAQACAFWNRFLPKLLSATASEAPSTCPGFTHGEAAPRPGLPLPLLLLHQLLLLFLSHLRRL
Excerpt: as §1, §2

equine serum BChE = target: T3, equine serum BChE (Equus caballus, UniProt P81908); assay: biochemical; settings: mean ± SEM, n = 3, read-out: Inhibitory activity against BChE, IC50
T3 construct: human erythrocyte AChE, equine serum BChE, and porcine liver CES were used; purchased Sigma-Aldrich; host or cells: equine serum (tissue-derived)
T3 sequence (P81908 whole entry): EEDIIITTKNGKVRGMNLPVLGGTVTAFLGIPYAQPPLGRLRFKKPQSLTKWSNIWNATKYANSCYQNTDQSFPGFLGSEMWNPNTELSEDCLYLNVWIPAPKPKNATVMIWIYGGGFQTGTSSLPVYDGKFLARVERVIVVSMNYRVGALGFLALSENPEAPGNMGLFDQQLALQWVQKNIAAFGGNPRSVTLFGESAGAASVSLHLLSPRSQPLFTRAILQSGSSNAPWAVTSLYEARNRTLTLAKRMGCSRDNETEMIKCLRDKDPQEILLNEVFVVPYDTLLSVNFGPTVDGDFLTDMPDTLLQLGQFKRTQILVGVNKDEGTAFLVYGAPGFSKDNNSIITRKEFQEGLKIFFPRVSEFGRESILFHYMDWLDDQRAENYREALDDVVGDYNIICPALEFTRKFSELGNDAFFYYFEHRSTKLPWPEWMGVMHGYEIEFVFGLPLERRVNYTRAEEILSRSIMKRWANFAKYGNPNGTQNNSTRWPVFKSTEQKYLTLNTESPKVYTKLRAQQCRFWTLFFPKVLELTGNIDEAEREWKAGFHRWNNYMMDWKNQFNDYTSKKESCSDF
Excerpt: as §1, §2

FRAP assay = settings: Trolox equivalents; 60 min, 37 °C; n.a. = not active
Description: The Ferric Reducing Antioxidant Power (FRAP) test involves reduction of the ferric 2,4,6-tripyridyl-s-triazine complex [Fe(TPTZ)2]^3+ to an intense-blue ferrous complex [Fe(TPTZ)2]^2+ [92], as previously reported. Results are given as Trolox Equivalents (TE).
The FRAP (ferric reducing antioxidant power) assay proposed by Benzie and Strain [92] was modified to be performed in 96-well microplates as described in detail in [53]. The FRAP reagent contained 2.5 mL of 10 mM TPTZ (2,4,6-tris(2-pyridyl)-s-triazine, Sigma-Aldrich) solution in 40 mM HCl, 2.5 mL of 20 mM FeCl3 (Sigma-Aldrich) in distilled water and 25 mL of 0.3 M acetate buffer (pH 3.6). Aliquots of 10 µL of the test compound dissolved in DMSO (0.5 mM) were placed in quadruplicate. Absorbance was measured at a wavelength of 593 nm after 60 min incubation at 37 °C. In each case, Trolox was used as a reference compound to obtain the standard curve. The AO activity was calculated with respect to the activity of Trolox and expressed as Trolox equivalents (TE)—the values calculated as the ratio of the concentrations of Trolox and the test compound resulting in the same effect on ferric reducing activity.

AChE = target: T4, AChE (Homo sapiens, UniProt P22303); assay: Kinetic study of AChE inhibition (Lineweaver-Burk); assay type: biochemical; settings: mixed-type inhibition; mean ± SEM
T4 construct: human erythrocyte AChE, equine serum BChE, and porcine liver CES were used; purchased Sigma-Aldrich; host or cells: human erythrocytes (tissue-derived)
T4 sequence (P22303 32-617 isoform P22303-2 limits assumed): as the sequence (P22303 32-617 isoform P22303-2 limits assumed) above
Description: (§3) We assessed the mechanisms of AChE and BChE inhibition by performing a thorough analysis of enzyme kinetics. After a 5 min incubation at 25 °C (for temperature equilibration) with three increasing concentrations of inhibitor and six decreasing substrate concentrations, the residual enzyme activity was measured as described above for enzymatic assays.

eqBChE = target: T5, eqBChE (Equus caballus, UniProt P81908); assay: Kinetic study of BChE inhibition (Lineweaver-Burk); assay type: biochemical; settings: mixed-type inhibition, mean ± SEM
T5 construct: human erythrocyte AChE, equine serum BChE, and porcine liver CES were used; purchased Sigma-Aldrich; host or cells: equine serum (tissue-derived)
T5 sequence (P81908 whole entry): as the sequence (P81908 whole entry) above
Description: Similar results were obtained for other tested compounds (Figures S61 and S62). The obtained values of inhibition constants (Ki = competitive component and αKi = non-competitive component) are shown in Table 2.
as §3

[2] = Aβ42 50 µM, compound 100 µM, 24 h, 37 °C, thioflavin T

| Structure (SMILES) | inhibition at 100 µM (β-amyloid (1–42) (Aβ42); [2]) | Propidium Displacement from EeAChE PAS (EeAChE PAS) | IC50 [1] | ABTS^•+ Scavenging Activity, TEAC [1] | Inhibitory activity against CES, inhibition at 20 µM (porcine liver CES) | IC50 (human erythrocyte AChE) | IC50 (equine serum BChE) | FRAP, TE (FRAP assay) | Inhibition of Aβ42 Self-Aggregation (β-amyloid (1–42) (Aβ42); [2]) | αKi (non-competitive inhibition constant), AChE (AChE) | αKi (non-competitive inhibition constant), eqBChE (eqBChE) | Ki (eqBChE; read-out: Ki (competitive inhibition constant), eqBChE) | inhibition at 100 µM (β-amyloid (1–42) (Aβ42)) |
| --- | --- | --- | --- | --- | --- | --- | --- | --- | --- | --- | --- | --- | --- |
| O=C(NCCCCNc1c2c(nc3ccccc13)CCCC2)c1cc(F)c(F)cc1O [7a, 4,5-Difluoro-2-hydroxy-N-[4-(1,2,3,4-tetrahydroacridin-9-ylamino)butyl]benzamide] | 17.4 ± 1.2% | 10.4 ± 0.9% | > 200000 nM | 0.06 and 0.060 ± 0.002 | 4.3 ± 0.9% | 500 ± 30 nM | 29.1 ± 2.2 nM | – | – | – | – | – | – |
| O=C(NCCCCNc1c2c(nc3ccccc13)CCCC2)c1ccccc1O [5a] | 20.7 ± 1.6% | 11.8 ± 0.9% | 25300 ± 1100 nM | 0.73 ± 0.04 | 1.6 ± 1.1% | – | – | 0.02 | – | – | – | – | – |
| Cc1c(C)c2c(c(C)c1O)CCC(C)(C(=O)O)O2 (stereo not shown) [Trolox, 6-hydroxy-2,5,7,8-tetramethylchroman-2-carboxylic acid, reference compound] | – | – | 19800 ± 800 nM | 1.00 | – | – | – | 1.00 | – | – | – | – | – |
| Oc1ccccc1C=NCCCCNc1c2c(nc3ccccc13)CCCC2 [10a, 2-[4-(1,2,3,4-Tetrahydroacridin-9-ylamino)butyliminomethyl]phenol] | 57.9 ± 4.6% | 18.6 ± 1.6% | 35800 ± 1900 nM | 0.42 ± 0.03 | 20.8 ± 0.4% | 743 ± 44 nM | 127 ± 6 nM | 0.02 | – | – | – | – | – |
| COc1ccccc1C(=O)NCCCCNc1c2c(nc3ccccc13)CCCC2 [6a] | 12.3 ± 0.9% | 10.2 ± 0.9% | – | 0.02 (n.a.) | 3.4 ± 0.7% | 1920 ± 130 nM | 10.5 ± 0.7 nM | 0.03 | – | – | – | – | – |
| O=C1O[C@H]([C@@H](O)CO)C(O)=C1O [Ascorbic acid, reference compound] | – | – | 22600 ± 1200 nM | 0.96 ± 0.03 | – | – | – | 1.28 ± 0.11 | – | – | – | – | – |
| COc1cc(F)c(F)cc1C(=O)NCCCCNc1c2c(nc3ccccc13)CCCC2 [8a, 4,5-Difluoro-2-methoxy-N-[4-(1,2,3,4-tetrahydroacridin-9-ylamino)butyl]benzamide] | 10.4 ± 0.9% | 13.2 ± 1.0% | – | – | 6.5 ± 1.1% | 1220 ± 70 nM | 54.7 ± 3.4 nM | 0.03 | – | – | – | – | – |
| CC[N+](C)(CC)CCC[n+]1c(-c2ccccc2)c2cc(N)ccc2c2ccc(N)cc21.[I-].[I-] [Propidium iodide, reference compound] | – | – | – | – | – | – | – | – | 90.7 ± 7.1% | – | – | – | – |
| O=C(NCCCCCCCCNc1c2c(nc3ccccc13)CCCC2)c1ccccc1O [5c] | 71.9 ± 5.7% | 14.2 ± 1.1% | 25500 ± 1100 nM | 0.75 ± 0.04 | 29.5 ± 2.5% | – | 10.4 ± 1.3 nM | – | – | 0.263 ± 0.018 µM | 0.0171 ± 0.0013 µM | 10.6 ± 0.7 nM | – |
| O=C(O)c1ccccc1O [Salicylic acid, reference compound] | – | – | – | no antiradical activity | 8.9 ± 0.6% | – | 47600 ± 3200 nM | 0.02 | – | – | – | – | 6.5 ± 1.2% |
